Measurements: PMC5988308, “Rhodanine derivatives as potent anti-HIV and anti-HSV microbicides” (PLoS ONE, 2018)
“And” between values parts separate entries of the source, which are not always exact repeats. Identical values can stand only once. Like-named read-outs stand apart in the source and are kept apart here.

Assays:
[1] = tested on: HIV-1 AD8 (CCR5-tropic strain); assay: Antiviral activity on TZM-bl cells infected with HIV-1 AD8 (CPRG assay); assay type: cell-based; settings: Human immunodeficiency virus 1, TZM-bl cells
Experimental: The human TZM-bl indicator cell line (obtained from the NIH AIDS reagents program, cat. Nr 8129 (www.aidsreagent.org) and maintained at 37°C and 5% CO2 in Dulbecco’s modified Eagle’s medium (DMEM) medium containing 10% fetal bovine serum, 50 μg/mL penicillin, and 50 μg/mL streptomycin. The HIV-1 laboratory strains NL(AD8) (NIH AIDS reagents program, cat.nr 11346), NL4.3 (NIH AIDS reagents program, cat. Nr. 114) were titrated as previously reported. Briefly, serial 5-fold dilutions of each virus were made in quadruplicate wells in 96-well culture plates, in a total volume of 100 μL of growth medium (DMEM), for a total of 8 dilution steps. Freshly trypsinized cells (20,000 cells in 100 μL of growth medium containing 75 μg/mL DEAE-dextran) were added to each well, and the plates were incubated at 37°C in a humidified 5% CO2-95% air environment. After 48 h of incubation, the medium was removed and viral infection was quantified using a β-galactosidase (CPRG) assay (Roche). Twenty thousand TZM-bl cells/well were seeded in 96-well plates in complete DMEM supplemented with 30 μg/mL DEAE-dextran (Sigma-Aldrich). Three hundred times the 50% tissue culture infective dose (TCID50)/mL of each strain was pretreated for 1 h at 37°C with six serial dilutions ([…] to 3.2 nM) of each compound and then added to the cells, as previously described. Vehicle (0.1% dimethyl sulfoxide [DMSO])-treated cells served as a negative control. […] After 2 days, viral infection was quantified using a CPRG assay (Roche). The inhibitory curves were fitted by nonlinear regression, allowing for the calculation of the 50% inhibitory concentration (IC50) using the Prism software. To evaluate the cell toxicity of the compounds, the metabolic XTT [2,3-bis-(2-methoxy-4-nitro-5-sulfophenyl)-2H-tetrazolium-5-carboxanilide] test (Sigma-Aldrich) was performed according to the manufacturer’s instructions.

[2] = target: human serum albumin (HSA) (Homo sapiens, UniProt P02768); assay: Albumin binding fluorimetric assay, HSA; settings: fluorescence quenching, 10 μM HSA
Experimental: The binding of each compounds to HSA (human serum albumin) and BSA (bovine serum albumin) were monitored by fluorescence spectroscopy in order to determine the dissociation constant (Kd). A quantitative analysis of the potential interaction was performed by fluorimetric analysis using 96 multiwell plates: in each well a fixed concentration of HSA or BSA (10μM in phosphate buffer 1 mM), was added with different amounts of tested compound (0.1μM to 500μM by stock solutions in DMSO). […] The obtained fluorescence quenching percentages were plotted against drug concentrations and the relative Kd values were obtained using GraphPad software (version 6.0).

HSV-2 = HSV-2 plaque reduction assay on Vero cells; assay type: cell-based; settings: for EC50 / EC90: Human alphaherpesvirus 2, Vero; for EC50: read-out: HSV-2 EC50; for EC90: read-out: HSV-2 EC90; for SI (CC50/EC50), HSV-2: Vero cells
Experimental: Clinical isolates of HSV-1 and HSV-2 were kindly provided by Prof. M. Pistello, University of Pisa, Italy. HSV-1 and HSV-2 strains were propagated and titrated by plaque assay on Vero cells. A HSV-2 strain with phenotypic resistance to acyclovir was generated by serial passage in the presence of increasing concentrations of acyclovir, as previously described.
The effect of the rhodanine derivatives on HSV infection was evaluated by plaque reduction assay. Vero cells were pre-plated 24 h in advance in 24-well plates at a density of […]. Increasing concentrations of compounds were mixed with HSV-2 (MOI 0.001 pfu/cell) or HSV-2 acyclovir resistant (MOI 0.001) or HSV-1 (MOI 0.0005) or and incubated for 1 hour at 37°C. The mixtures were subsequently added to the cells, which were then incubated at 37°C for 2 h. The virus inoculum was then removed and the cells washed and overlaid with a medium containing 1.2% methylcellulose (Sigma). After further incubation at 37°C for 24 h (HSV-2 and HSV-2 R Acy) or 48 h (HSV-1), cells were fixed and stained with 0.1% crystal violet in 20% ethanol and viral plaques counted. The effective concentration producing 50% reduction (EC50) and 90% reduction (EC90) in plaque formation was determined using Prism software by comparing drug-treated with wells treated with medium and solvent. The selectivity index (SI) was calculated by dividing the CC50 by the EC50 value.
All results are presented as the mean values from three independent experiments. The EC50 values for inhibition curves were calculated by regression analysis using the software GraphPad Prism (GraphPad Software, San Diego, California, U.S.A.) by fitting a variable slope-sigmoidal dose–response curve. Acyclovir was purchased from Sigma Aldrich (Milan, Italy).

[3] = tested on: HIV-1 NL4.3 (CXCR4-tropic strain); assay: Antiviral activity on TZM-bl cells infected with HIV-1 NL4.3 (CPRG assay); assay type: cell-based; settings: TZM-bl cells
Experimental: After 48 h of incubation, the medium was removed and viral infection was quantified using a β-galactosidase (CPRG) assay (Roche). Twenty thousand TZM-bl cells/well were seeded in 96-well plates in complete DMEM supplemented with 30 μg/mL DEAE-dextran (Sigma-Aldrich). […] Vehicle (0.1% dimethyl sulfoxide [DMSO])-treated cells served as a negative control. […] After 2 days, viral infection was quantified using a CPRG assay (Roche). […] To evaluate the cell toxicity of the compounds, the metabolic XTT [2,3-bis-(2-methoxy-4-nitro-5-sulfophenyl)-2H-tetrazolium-5-carboxanilide] test (Sigma-Aldrich) was performed according to the manufacturer’s instructions.

[4] = pre-incubation in complete medium containing fetal bovine serum (FBS), read-out: AD8 EC50 a
[5] = pre-incubation with virus without serum, read-out: AD8 EC50
[6] = Human immunodeficiency virus 1, NL43, TZM-bl, pre-incubation in complete medium containing fetal bovine serum (FBS), read-out: NL4-3 EC50 a
[7] = Human immunodeficiency virus 1, NL43, TZM-bl, pre-incubation with virus without serum, read-out: NL4-3 EC50

Sequence of human serum albumin (HSA) (P02768 25-609): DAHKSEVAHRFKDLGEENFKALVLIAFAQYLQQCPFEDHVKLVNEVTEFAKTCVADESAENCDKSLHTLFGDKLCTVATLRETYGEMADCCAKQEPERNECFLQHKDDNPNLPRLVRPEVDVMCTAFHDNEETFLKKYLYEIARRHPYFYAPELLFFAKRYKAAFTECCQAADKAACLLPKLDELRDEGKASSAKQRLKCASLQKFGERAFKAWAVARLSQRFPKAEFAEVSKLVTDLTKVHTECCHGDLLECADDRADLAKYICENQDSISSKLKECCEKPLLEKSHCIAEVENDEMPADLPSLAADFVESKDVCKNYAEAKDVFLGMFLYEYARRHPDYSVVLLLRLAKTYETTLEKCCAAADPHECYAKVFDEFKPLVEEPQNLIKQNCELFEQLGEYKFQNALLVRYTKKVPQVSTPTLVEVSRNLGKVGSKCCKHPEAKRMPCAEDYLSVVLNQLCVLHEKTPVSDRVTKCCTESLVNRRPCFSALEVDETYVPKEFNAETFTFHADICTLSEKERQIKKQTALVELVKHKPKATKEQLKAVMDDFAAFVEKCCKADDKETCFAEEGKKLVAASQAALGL

Structure (SMILES) | EC50 [1, 4] | EC50 [1, 5] | Kd [2] | EC50 (HSV-2) | EC90 (HSV-2) | EC50 [3, 6] | EC50 [3, 7] | EC50 ([3]; Human immunodeficiency virus 1, TZM-bl, pre-incubation with FBS, read-out: EC50 against NL4.3 strain in presence of serum) | EC50 ([3]; pre-incubation with virus without serum, read-out: NL4-3 EC50) | SI (CC50/EC50), HSV-2 (HSV-2) | melting point
O=C(O)c1ccc(-c2ccc(/C=C3\SC(=S)N(Cc4ccc(F)cc4)C3=O)o2)cc1O [Compound 1] | 1395 ± 10 nM | 32.3 ± 3 nM | 630 ± 100 nM | 168 ± 143 nM | 2110 ± 918 nM | 2951 ± 15 nM | ~50 nM | 3000 nM | 49.5 ± 2 nM | – | –
O=C(O)c1ccc(-c2ccc(/C=C3\SC(=S)N(Cc4ccc(Cl)cc4)C3=O)o2)cc1O [Compound 2] | 650 nM | 6.9 nM | 960 ± 100 nM | 11.9 ± 5.73 nM | 481 ± 299 nM | 190 ± 9 nM | 4 nM | – | – | 9400 and 9403 | –
O=C(O)c1ccc(-c2ccc(/C=C3\SC(=S)N(CCc4ccc(F)cc4)C3=O)o2)cc1O [Compound 9a, (Z)-4-(5-((3-(4-fluorophenethyl)-4-oxo-2-thioxothiazolidin-5-ylidene)methyl)furan-2-yl)-2-hydroxybenzoic acid] | 116 ± 24 nM | 7.5 nM | 1510 ± 200 nM | 345 ± 168 nM | 426 ± 56.3 nM | 204 ± 12 nM | 5.4 nM | – | – | >869 | 292 °C (dec.)
Cc1ccc(CCN2C(=O)/C(=C/c3ccc(-c4ccc(C(=O)O)c(O)c4)o3)SC2=S)cc1 [Compound 9b, (Z)-2-hydroxy-4-(5-((3-(4-methylphenethyl)-4-oxo-2-thioxothiazolidin-5-ylidene)methyl)furan-2-yl)benzoic acid] | 404 ± 20 nM | 46.7 ± 9 nM | 1570 ± 200 nM | 4.89 ± 1.59 nM | 57.8 ± 22.6 nM | 457 ± 5 nM | 23 ± 4 nM | – | – | 2209 | 258 °C (dec.)
O=C(O)c1ccc(-c2ccc(/C=C3\SC(=S)N(CCCc4ccccc4)C3=O)o2)cc1O [Compound 9c, (Z)-2-hydroxy-4-(5-((4-oxo-3-(3-phenylpropyl)-2-thioxothiazolidin-5-ylidene)methyl)furan-2-yl)benzoic acid] | 378 ± 15 nM | 27.5 ± 4 nM | 1190 ± 100 nM | 52 ± 21.2 nM | 422 ± 225 nM | 457 ± 11 nM | 15.3 ± 2 nM | – | – | 3936 | 248 °C (dec.)
CCc1ccc(CCN2C(=O)/C(=C/c3ccc(-c4ccc(C(=O)O)c(O)c4)o3)SC2=S)cc1 [Compound 9d, (Z)-4-(5-((3-(4-ethylphenethyl)-4-oxo-2-thioxothiazolidin-5-ylidene)methyl)furan-2-yl)-2-hydroxybenzoic acid] | 186 ± 9 nM | 36 ± 3 nM | 1090 ± 900 nM | 28.7 ± 7.11 nM | 140 ± 61.2 nM | 228 ± 10 nM | 23.4 ± 3 nM | – | – | 600 and 604.3 | 273 °C (dec.)
O=C(O)c1ccc(-c2ccc(/C=C3\SC(=S)N(c4ccc(F)c(Cl)c4)C3=O)o2)cc1O [Compound 9e, (Z)-4-(5-((3-(3-chloro-4-fluorophenyl)-4-oxo-2-thioxothiazolidin-5-ylidene)methyl)furan-2-yl)-2-hydroxybenzoic acid] | 400 ± 14 nM | 26 ± 6 nM | 2190 ± 1000 nM | 50.3 ± 10.5 nM | 206 ± 85.5 nM | 420 ± 7 nM | 30 ± 1 nM | – | – | >1988 | –
O=C(O)c1ccc(-c2ccc(/C=C3\SC(=S)N(Cc4ccc(Cl)c(F)c4)C3=O)o2)cc1O [Compound 9f, (Z)-4-(5-((3-(4-chloro-3-fluorobenzyl)-4-oxo-2-thioxothiazolidin-5-ylidene)methyl)furan-2-yl)-2-hydroxybenzoic acid] | 560 ± 10 nM | 20 ± 4 nM | 2230 ± 1200 nM | 26.4 ± 11.1 nM | 153 ± 159 nM | 570 ± 9 nM | 17 ± 2 nM | – | – | 298 | –
